Results: patent US20260234211A1, “POLYPEPTIDE HAVING MODIFIED STRUCTURE AND USE THEREOF” (Guangdong Raynovent Biotech Co., Ltd., priority 2023, published 2026)
Where two headings read alike, the source gives them in different places. Numbered stars: 1 amine (or outer) side, 2 acyl side, 3 side chain; on linkers, the order of the positions; unused ones are H or OH. Bridge positions count the residues as written; N and C are the ends. Square brackets hold non-standard residues; d marks the D form. Peptide text beside a SMILES is read from it. X2 = O=C(O)CCCCCCCCCCCCCCCCCCC(=O)N[C@@H](CCC(=O)NCCOCCOCC(=O)N[C@@H](CCC(=O)[*:2])C(=O)[*:1])C(=O)O; αMeL = CC(C)C[C@](C)(N)C(=O)O; Aib = CC(C)(N)C(=O)O

Key:
[1] = Pharmacokinetic properties in Cynomolgus macaques; settings: cynomolgus monkey, in vivo, male cynomolgus macaques, plasma; for AUC(0-t): read-out: AUC0-240 h; for AUC(0-inf): read-out: AUCINF; for Cmax: read-out: Cmax; for half-life: read-out: T1/2 (converted); for Tmax: read-out: Tmax
Procedure: To test the pharmacokinetic profiles of the compounds in Cynomolgus macaques.
Non-juvenile male cynomolgus macaques were used for experiment, 3 cynomolgus macaques for each compound. Whole blood was collected at time points of 1 h, 2 h, 4 h, 8 h, 16 h, 24 h, 48 h, 72 h, 120 h, 168 h and 240 h after administration, to prepare plasma. The drug concentration was analyzed by LC-MS/MS method, and the pharmacokinetic parameters were calculated using Phoenix WinNonlin software.

[2] = Metabolic stability in human kidney S9; type: in vitro ADME
Procedure: The metabolic stability of the compounds in human kidney was evaluated to determine whether the drugs would be degraded by metabolic enzymes in the kidney to affect the efficacies and pharmacokinetics. 1. Relevant solutions were formulated. 2. a) With cofactors (NADPH & UDPGA): NADPH and UDPGA were added during the incubation. […] H2O was added into the culture solution. The final concentration of KS9 Fractions was 1 mg/mL. The mixture was pre-heated at 37° C. for 10 min. […] In this study, 7-hydroxy-coumarin and Raloxifene were used as the positive control. The final concentration of the positive control compounds was 0.2 μM, and the final concentration of the test compound was 1 μM. The culture solution was incubated in water bath at 37° C. 4. At 0.5, 5, 15, 30 and 60 min, volume aliquots were taken from the reaction solution and the reaction was stopped by adding acetonitrile. The samples were centrifuged for 30 min. The supernatant was taken and mixed with ultrapure water for subsequent LC-MS/MS analysis. 5. Data analysis: All calculation was conducted using Microsoft Excel. Peak areas were determined and slope values were calculated based on the extracted ion chromatograms.

[3] = Human kidney S9 1 mg/mL, +Cofactors (NADPH & UDPGA), 37° C., read-out: in vitro CLint
[4] = Human kidney S9 1 mg/mL, +Cofactors (NADPH & UDPGA), 37° C., read-out: in vitro t1/2

SMILES	AUC(0-t) [1]	AUC(0-inf) [1]	Cmax [1]	half-life [1]	Tmax [1]	also measured
CC[C@H](C)[C@H](NC(=O)[C@H](Cc1ccccc1)NC(=O)[C@@H]1CCCCNC(=O)CN(C(=O)COCCOCCNC(=O)CC[C@H](NC(=O)CCCCCCCCCCCCCCCCCCC(=O)O)C(=O)O)CC(=O)NCCCC[C@H](NC(=O)[C@H](CCCCN)NC(=O)[C@H](CC(=O)O)NC(=O)[C@H](CC(C)C)NC(=O)[C@](C)(CC(C)C)NC(=O)[C@@H](NC(=O)[C@H](CO)NC(=O)[C@H](Cc2ccc(O)cc2)NC(=O)[C@H](CC(=O)O)NC(=O)[C@H](CO)NC(=O)[C@@H](NC(=O)[C@H](Cc2ccccc2)NC(=O)[C@@H](NC(=O)CNC(=O)[C@H](CCC(N)=O)NC(=O)C(C)(C)NC(=O)[C@@H](N)Cc2ccc(O)cc2)[C@@H](C)O)[C@@H](C)O)[C@@H](C)CC)C(=O)N[C@@H](C)C(=O)N[C@@H](CCC(N)=O)C(=O)NC(C)(C)C(=O)N1)C(=O)N[C@@H](CCC(=O)O)C(=O)N[C@@H](Cc1ccccc1)C(=O)N[C@@H](CC(C)C)C(=O)N[C@@H](CC(C)C)C(=O)N[C@@H](CCC(=O)O)C(=O)NCC(=O)NCC(=O)N1CCC[C@H]1C(=O)N[C@@H](CO)C(=O)N[C@@H](CO)C(=O)NCC(=O)N[C@@H](C)C(=O)N1CCC[C@H]1C(=O)N1CCC[C@H]1C(=O)N1CCC[C@H]1C(=O)N[C@@H](CO)C(N)=O [Example 9, YAibQGT FTSDY SIα- MeLLD K^1KAQAib ^1KFIEF LLEGG PSSGA PPPS-NH2 (SEQ ID NO: 15)]	3.23 µM·h	3.64 µM·h	30.1 nM	77.4 h	29.3 h	–
CC[C@H](C)[C@@H]1NC(=O)[C@H](Cc2ccccc2)NC(=O)[C@H](C)NC(=O)C(C)(C)NC(=O)[C@H](CCC(N)=O)NC(=O)[C@H](C)NC(=O)[C@@H](NC(=O)[C@H](CCCCN)NC(=O)[C@H](CC(=O)O)NC(=O)[C@H](CC(C)C)NC(=O)[C@](C)(CC(C)C)NC(=O)[C@@H](NC(=O)[C@H](CO)NC(=O)[C@H](Cc2ccc(O)cc2)NC(=O)[C@H](CC(=O)O)NC(=O)[C@H](CO)NC(=O)[C@@H](NC(=O)[C@H](Cc2ccccc2)NC(=O)[C@@H](NC(=O)CNC(=O)[C@H](CCC(N)=O)NC(=O)C(C)(C)NC(=O)[C@@H](N)Cc2ccc(O)cc2)[C@@H](C)O)[C@@H](C)O)[C@@H](C)CC)CCCCNC(=O)CN(C(=O)COCCOCCNC(=O)COCCOCCNC(=O)CC[C@H](NC(=O)CCCCCCCCCCCCCCCCCCC(=O)O)C(=O)O)CC(=O)NCCCC[C@@H](C(=O)N[C@@H](Cc2ccc(O)cc2)C(=O)N[C@@H](CC(C)C)C(=O)N[C@@H](CC(C)C)C(=O)N[C@@H](CCC(=O)O)C(=O)NCC(=O)NCC(=O)N2CCC[C@H]2C(=O)N[C@@H](CO)C(=O)N[C@@H](CO)C(=O)NCC(=O)N[C@@H](C)C(=O)N2CCC[C@H]2C(=O)N2CCC[C@H]2C(=O)N2CCC[C@H]2C(=O)N[C@@H](CO)C(N)=O)NC1=O [Example 11, YAibQGT FTSDY SIα- MeLLD K^1KAQAib AFI^1KY LLEGG PSSGA PPPS-NH2 (SEQ ID NO: 17)]	–	–	–	–	–	half-life at 1 μM ([2]; human, s9): > 3.08 h; microsomal CLint at 1 μM ([2]; human, s9): < 3.75 µL/min/mg
CC[C@H](C)[C@H](NC(=O)[C@H](Cc1ccccc1)NC(=O)[C@@H]1CCCCNC(=O)CC[C@H](NC(=O)COCCOCCNC(=O)CC[C@H](NC(=O)CCCCCCCCCCCCCCCCCCC(=O)O)C(=O)O)C(=O)NCCCC[C@H](NC(=O)[C@H](CCCCN)NC(=O)[C@H](CC(=O)O)NC(=O)[C@H](CC(C)C)NC(=O)[C@](C)(CC(C)C)NC(=O)[C@@H](NC(=O)[C@H](CO)NC(=O)[C@H](Cc2ccc(O)cc2)NC(=O)[C@H](CC(=O)O)NC(=O)[C@H](CO)NC(=O)[C@@H](NC(=O)[C@H](Cc2ccccc2)NC(=O)[C@@H](NC(=O)CNC(=O)[C@H](CCC(N)=O)NC(=O)C(C)(C)NC(=O)[C@@H](N)Cc2ccc(O)cc2)[C@@H](C)O)[C@@H](C)O)[C@@H](C)CC)C(=O)N[C@@H](C)C(=O)N[C@@H](CCC(N)=O)C(=O)NC(C)(C)C(=O)N1)C(=O)N[C@@H](CCC(=O)O)C(=O)N[C@@H](Cc1ccc(O)cc1)C(=O)N[C@@H](CC(C)C)C(=O)N[C@@H](CC(C)C)C(=O)N[C@@H](CCC(=O)O)C(=O)NCC(=O)NCC(=O)N1CCC[C@H]1C(=O)N[C@@H](CO)C(=O)N[C@@H](CO)C(=O)NCC(=O)N[C@@H](C)C(=O)N1CCC[C@H]1C(=O)N1CCC[C@H]1C(=O)N1CCC[C@H]1C(=O)N[C@@H](CO)C(N)=O [Example 8, YAibQGT FTSDY SIα- MeLLD K^1KAQAib ^1KFIEY LLEGG PSSGA PPPS-NH2 (SEQ ID NO: 1)] (H-Y[Aib]QGTFTSDYSI[αMeL]LDKKAQ[Aib]KFIEYLLEGGPSSGAPPPS-NH2; linker 17-21 via X2 (inferred); N-terminus assumed)	–	–	–	–	–	half-life ([2]; human, s9): > 3.08 h; microsomal CLint ([2]; human, s9): < 3.75 µL/min/mg
CC[C@H](C)[C@H](NC(=O)[C@H](Cc1ccccc1)NC(=O)[C@@H]1CCCCNC(=O)CN(C(=O)[C@@H](N)CCCCNC(=O)[C@@H](N)CCCCNC(=O)CC[C@H](NC(=O)CCCCCCCCCCCCCCCCCCC(=O)O)C(=O)O)CC(=O)NCCCC[C@H](NC(=O)[C@H](CCCCN)NC(=O)[C@H](CC(=O)O)NC(=O)[C@H](CC(C)C)NC(=O)[C@](C)(CC(C)C)NC(=O)[C@@H](NC(=O)[C@H](CO)NC(=O)[C@H](Cc2ccc(O)cc2)NC(=O)[C@H](CC(=O)O)NC(=O)[C@H](CO)NC(=O)[C@@H](NC(=O)[C@H](Cc2ccccc2)NC(=O)[C@@H](NC(=O)CNC(=O)[C@H](CCC(N)=O)NC(=O)C(C)(C)NC(=O)[C@@H](N)Cc2ccc(O)cc2)[C@@H](C)O)[C@@H](C)O)[C@@H](C)CC)C(=O)N[C@@H](C)C(=O)N[C@@H](CCC(N)=O)C(=O)NC(C)(C)C(=O)N1)C(=O)N[C@@H](CCC(=O)O)C(=O)N[C@@H](Cc1ccc(O)cc1)C(=O)N[C@@H](CC(C)C)C(=O)N[C@@H](CC(C)C)C(=O)N[C@@H](CCC(=O)O)C(=O)NCC(=O)NCC(=O)N1CCC[C@H]1C(=O)N[C@@H](CO)C(=O)N[C@@H](CO)C(=O)NCC(=O)N[C@@H](C)C(=O)N1CCC[C@H]1C(=O)N1CCC[C@H]1C(=O)N1CCC[C@H]1C(=O)N[C@@H](CO)C(N)=O [Example 7, YAibQGT FRSDY SIα- MeLLD K^1KAQAib ^1KFIEY LLEGG PSSGA PPPS-NH2 (SEQ ID NO: 1)]	3.32 µM·h	3.96 µM·h	24.3 nM	84.1 h	29.3 h	microsomal CLint [2, 3]: < 3.75 µL/min/mg; half-life [2, 4]: > 3.08 h
O=c1ccc2ccc(O)cc2o1 [7-Hydroxy-courmarin, 7-hydroxy-coumarin, reference compound]	–	–	–	–	–	half-life at 0.2 μM ([2]; human, s9): 1.69 h; microsomal CLint at 0.2 μM ([2]; human, s9): 6.84 µL/min/mg
CC[C@H](C)[C@H](NC(=O)[C@H](Cc1ccccc1)NC(=O)[C@H](C)NC(=O)C(C)(C)NC(=O)[C@H](CCC(N)=O)NC(=O)[C@H](C)NC(=O)[C@@H]1CCCCNC(=O)CN(C(=O)COCCOCCNC(=O)CC[C@H](NC(=O)CCCCCCCCCCCCCCCCCCC(=O)O)C(=O)O)CC(=O)NCCCC[C@H](NC(=O)[C@](C)(CC(C)C)NC(=O)[C@@H](NC(=O)[C@H](CO)NC(=O)[C@H](Cc2ccc(O)cc2)NC(=O)[C@H](CC(=O)O)NC(=O)[C@H](CO)NC(=O)[C@@H](NC(=O)[C@H](Cc2ccccc2)NC(=O)[C@@H](NC(=O)CNC(=O)[C@H](CCC(N)=O)NC(=O)C(C)(C)NC(=O)[C@@H](N)Cc2ccc(O)cc2)[C@@H](C)O)[C@@H](C)O)[C@@H](C)CC)C(=O)N[C@@H](CC(=O)O)C(=O)N[C@@H](CCCCN)C(=O)N1)C(=O)N[C@@H](CCC(=O)O)C(=O)N[C@@H](Cc1ccc(O)cc1)C(=O)N[C@@H](CC(C)C)C(=O)N[C@@H](CC(C)C)C(=O)N[C@@H](CCC(=O)O)C(=O)NCC(=O)NCC(=O)N1CCC[C@H]1C(=O)N[C@@H](CO)C(=O)N[C@@H](CO)C(=O)NCC(=O)N[C@@H](C)C(=O)N1CCC[C@H]1C(=O)N1CCC[C@H]1C(=O)N1CCC[C@H]1C(=O)N[C@@H](CO)C(N)=O [Example 21, YAibQGT FTSDY SIα- MeL^1KD K^1KAQAib AFIEY LLEGG PSSGA PPPS-NH2 (SEQ ID NO: 24)]	4.6 µM·h	5.94 µM·h	31.2 nM	105 h	40 h	microsomal CLint at 1 μM [2, 3]: < 3.75 µL/min/mg; half-life at 1 μM [2, 4]: > 3.08 h
O=C(c1ccc(OCCN2CCCCC2)cc1)c1c(-c2ccc(O)cc2)sc2cc(O)ccc12 [Raloxifene, reference compound]	–	–	–	–	–	half-life at 0.2 μM ([2]; human, s9): 1.56 h; microsomal CLint at 0.2 μM ([2]; human, s9): 7.77 µL/min/mg
